For orientation: EC50 means the concentration that produces a half-maximal response.

Assay [1] concerns the target T1, Peroxisome proliferator-activated receptor gamma (Mus musculus) (UniProt P37238).
T1 sequence (whole entry): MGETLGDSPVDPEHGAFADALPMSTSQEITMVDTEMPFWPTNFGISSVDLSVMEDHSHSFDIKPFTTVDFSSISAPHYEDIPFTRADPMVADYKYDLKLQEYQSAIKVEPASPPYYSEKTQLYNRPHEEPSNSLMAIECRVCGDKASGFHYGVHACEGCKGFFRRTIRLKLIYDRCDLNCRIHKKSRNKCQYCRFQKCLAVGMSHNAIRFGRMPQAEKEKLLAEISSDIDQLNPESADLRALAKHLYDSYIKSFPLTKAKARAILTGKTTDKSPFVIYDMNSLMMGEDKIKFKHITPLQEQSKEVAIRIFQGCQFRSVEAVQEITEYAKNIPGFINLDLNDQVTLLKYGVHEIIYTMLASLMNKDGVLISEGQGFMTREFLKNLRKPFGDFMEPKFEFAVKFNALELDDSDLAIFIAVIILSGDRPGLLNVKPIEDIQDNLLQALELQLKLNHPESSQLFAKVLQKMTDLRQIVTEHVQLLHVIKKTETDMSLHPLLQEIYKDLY
The experiment in a line: Agonist activity at PPARgamma in mouse 3T3L1 adipocytes assessed as induction of LPL mRNA expression at 1 uM by qRT-PCR analysis. The format is cell-based. The following applies: 3T3-L1.

The target in assay [2] is T2, Peroxisome proliferator-activated receptor gamma (Homo sapiens) (UniProt P37231).
T2 sequence (whole entry): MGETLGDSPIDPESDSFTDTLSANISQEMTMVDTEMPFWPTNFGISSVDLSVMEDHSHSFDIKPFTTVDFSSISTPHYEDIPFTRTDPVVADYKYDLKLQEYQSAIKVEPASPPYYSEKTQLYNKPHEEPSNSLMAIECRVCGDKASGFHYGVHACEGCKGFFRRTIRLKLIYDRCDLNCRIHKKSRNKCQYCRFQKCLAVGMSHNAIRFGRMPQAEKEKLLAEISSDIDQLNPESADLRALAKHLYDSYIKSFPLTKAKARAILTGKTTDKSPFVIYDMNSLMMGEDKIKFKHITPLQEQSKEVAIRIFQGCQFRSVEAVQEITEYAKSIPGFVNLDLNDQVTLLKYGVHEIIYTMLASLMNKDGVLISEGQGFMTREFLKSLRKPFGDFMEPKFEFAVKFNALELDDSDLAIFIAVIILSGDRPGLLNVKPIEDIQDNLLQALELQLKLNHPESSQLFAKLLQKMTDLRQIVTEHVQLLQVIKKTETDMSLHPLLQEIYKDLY
The experiment in a line: Agonist activity at N-terminal GFP-fused PPARgamma LBD (unknown origin) assessed as biotin-labeled SRC-1 recruitment incubated for 2 hrs by HT-FRET assay relative to rosiglitazone.

Assay [3] has as its target T3, Thyroid hormone receptor alpha (Homo sapiens, UniProt P10827).
T3 sequence (P10827 whole entry): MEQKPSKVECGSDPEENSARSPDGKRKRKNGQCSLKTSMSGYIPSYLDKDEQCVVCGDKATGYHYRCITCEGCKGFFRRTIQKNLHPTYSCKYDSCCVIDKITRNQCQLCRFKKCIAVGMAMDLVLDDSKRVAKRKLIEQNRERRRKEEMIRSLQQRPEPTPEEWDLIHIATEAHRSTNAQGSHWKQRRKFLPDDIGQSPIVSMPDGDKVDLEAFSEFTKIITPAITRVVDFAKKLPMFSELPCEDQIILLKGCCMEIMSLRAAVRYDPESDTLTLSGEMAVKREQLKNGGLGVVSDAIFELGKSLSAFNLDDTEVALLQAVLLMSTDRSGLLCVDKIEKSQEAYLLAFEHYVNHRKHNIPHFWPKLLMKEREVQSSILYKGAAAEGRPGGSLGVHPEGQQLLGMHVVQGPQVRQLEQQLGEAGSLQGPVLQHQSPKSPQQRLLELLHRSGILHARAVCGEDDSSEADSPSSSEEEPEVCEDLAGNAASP
Kind of assay: Agonist activity at THRalpha (unknown origin) incubated for 14 to 16 hrs by dual glo luciferase reporter gene assay. A general note: A reporter such as luciferase makes a cellular process visible.

In assay [4] the target is T2, Peroxisome proliferator-activated receptor gamma (Homo sapiens). The experiment in a line: Agonist activity at PPARgamma in human HepG2 cells assessed as induction of CD36 mRNA expression at 1 uM incubated for 8 hrs in presence of PPARgamma antagonist GW9662 by qPCR analysis. In kind it is cell-based. A general note: Quantitative PCR measures a nucleic acid by following its amplification.

The target of assay [5] is T4, Retinoic acid receptor RXR-alpha (Homo sapiens, UniProt P19793).
T4 sequence (P19793 whole entry): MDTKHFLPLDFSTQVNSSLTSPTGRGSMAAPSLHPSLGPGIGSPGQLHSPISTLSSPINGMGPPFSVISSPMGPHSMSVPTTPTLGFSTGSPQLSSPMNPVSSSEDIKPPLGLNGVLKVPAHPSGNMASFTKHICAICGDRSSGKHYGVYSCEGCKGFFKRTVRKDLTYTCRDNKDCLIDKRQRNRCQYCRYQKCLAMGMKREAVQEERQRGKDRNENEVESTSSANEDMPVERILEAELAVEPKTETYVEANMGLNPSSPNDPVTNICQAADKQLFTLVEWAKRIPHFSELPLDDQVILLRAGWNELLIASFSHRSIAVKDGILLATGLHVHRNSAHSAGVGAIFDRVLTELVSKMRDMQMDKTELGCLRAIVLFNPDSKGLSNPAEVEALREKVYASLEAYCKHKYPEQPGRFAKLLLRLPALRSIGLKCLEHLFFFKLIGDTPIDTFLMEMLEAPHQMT
Kind of assay: Agonist activity at GFP RXRalpha LBD (unknown origin) assessed as biotin-labeled SRC-1 recruitment incubated for 2 hrs by HT-FRET assay.

The target in assay [6] is T2, Peroxisome proliferator-activated receptor gamma (Homo sapiens). Kind of assay: Agonist activity at recombinant human pFA-CMV fused PPARgamma LBD expressed in HEK293T cells transfected with pFR-luciferase plasmid and pRL-SV40 plasmid at 0.1 uM incubated for 14 to 16 hrs in presence of PPARgamma antagonist GW9662 by dual glo luciferase reporter gene assay. Particulars: HEK-293T. In kind it is cell-based.

Assay [7] has the same target. The experiment in a line: Agonist activity at N-terminal GFP-fused PPARgamma LBD (unknown origin) assessed as biotin-labeled CBP recruitment incubated for 2 hrs by HT-FRET assay.
The target is the same in assay [8]. Kind of assay: Agonist activity at PPARgamma in human HepG2 cells without THRA knockdown assessed as induction of CD36 expression at 30 uM incubated for 8 hrs in by Western blot analysis. The format is cell-based. For orientation: In western blotting, separated proteins are transferred to a membrane and probed.

The source made the active and inactive calls. The calls are words filed in the database; no cut-off is given here.

`O=C(O)Cc1cc(I)c(Oc2cc(I)c(O)c(I)c2)c(I)c1` [TETRAC]: the result in assay [1], in assay [2] and in assay [7] was Active. Further, the EC50 in assay [3] is 20 nM; in assay [5], 4600 nM. For the same molecule, the outcome in assay [4] and in assay [6] was inactive.

Turning to `N[C@@H](Cc1cc(I)c(Oc2cc(I)c(O)c(I)c2)c(I)c1)C(=O)O` [LEVOTHYROXINE], in assay [8], the outcome was Active.

Values taken from ChEMBL document CHEMBL4627384, “l-Thyroxin and the Nonclassical Thyroid Hormone TETRAC Are Potent Activators of PPARγ” (J Med Chem, 2020).
